Here are results for two compounds from US8044076B2, “Phenyl derivatives and their use as immunomodulators” (Actelion Pharmaceuticals Ltd., priority 2006, dated 2011).

pEC50: −log10 of the molar value.

For this assay, the target named is human S1P1 receptor (Homo sapiens, UniProt P21453). The experiment in a line: GTPγS assay to determine EC50 values. It counts as biochemical. The following applies: 35S-GTPγS binding, membrane preparations of CHO cells expressing recombinant human S1P1 receptor. How it is done: GTPγS binding assays are performed in 96 well microtiter plates (Nunc, 442587) in a final volume of 200 μl, using membrane preparations of CHO cells expressing recombinant human S1P1 receptor. Assay conditions are 20 mM Hepes (Fluka, 54461), 100 mM NaCl (Fluka, 71378), 5 mM MgCl2 (Fluka, 63064), 0.1% BSA (Calbiochem, 126609), 1 μM GDP (Sigma, G-7127), 2.5% DMSO (Fluka, 41644), 50 pM ^35S-GTPγS (Amersham Biosciences, SJ1320). The pH is 7.4. Test compounds are dissolved and diluted in 100% DMSO and pre-incubated at room temperature for 30 min in 150 μl of the above assay buffer, in the absence of ^35S-GTPγS. After addition of 50 μl of ^35S-GTPγS, the assay is incubated for 1 h at rt. The assay is terminated by transfer of the reaction mixture to a Multiscreen plate (Millipore, MAHFC1H60) using a cell harvester from Packard Biosciences, and the plates are washed with ice-cold 10 mM Na2HPO4/NaH2PO4 (70%/30%), dried, sealed at the bottom and, after addition of 25 μl MicroScint20 (Packard Biosciences, order#6013621), sealed on the top. Membrane-bound ^35S-GTPγS is measured with a TopCount from Packard Biosciences.
EC50 is the concentration of agonist inducing 50% of the maximal specific ^35S-GTPγS binding. Specific binding is determined by subtracting non-specific binding from maximal binding. […]
The EC50 values were determined according to the method described above: […]

human S1P1 receptor, sequence (P21453 whole entry): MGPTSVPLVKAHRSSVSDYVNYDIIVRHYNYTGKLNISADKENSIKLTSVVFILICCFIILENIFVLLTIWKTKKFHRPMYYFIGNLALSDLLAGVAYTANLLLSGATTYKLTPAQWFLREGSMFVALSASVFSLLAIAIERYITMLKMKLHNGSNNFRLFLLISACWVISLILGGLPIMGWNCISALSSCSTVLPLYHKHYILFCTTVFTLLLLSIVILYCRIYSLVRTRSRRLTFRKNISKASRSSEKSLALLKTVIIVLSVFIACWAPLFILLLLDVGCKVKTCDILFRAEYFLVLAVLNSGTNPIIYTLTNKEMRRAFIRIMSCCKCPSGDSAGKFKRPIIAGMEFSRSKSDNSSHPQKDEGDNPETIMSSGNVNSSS

Turning to `Cc1cc(-c2nc(-c3cc(C)c(OCC(O)CNC(=O)CO)c(C)c3)no2)ccc1OC(C)C` (centres unmarked) [Example 6], the pEC50 – broadly, the EC50 on a negative log10 scale, so that one unit is a factor of ten – was 10.00.

Regarding `Cc1cc(-c2nc(-c3cc(C)c(OCC(O)CNC(=O)CO)c(C)c3)no2)ccc1CC(C)C` (centres unmarked) [Example 20], the pEC50 is 9.10.
